The values below come from paper PMC10714743, “TrCla4 promotes actin polymerization at the hyphal tip and mycelial growth in Trichophyton rubrum” (Microbiology Spectrum, 2023).

Experiment [1] concerns the target T1, TrCla4 (Trichophyton rubrum, UniProt F2SMN8).
T1 construct: gene TERG_04196; 3xHA-TrCla4 immunoprecipitated from T. rubrum; with TrRac
T1 sequence (F2SMN8 1-888): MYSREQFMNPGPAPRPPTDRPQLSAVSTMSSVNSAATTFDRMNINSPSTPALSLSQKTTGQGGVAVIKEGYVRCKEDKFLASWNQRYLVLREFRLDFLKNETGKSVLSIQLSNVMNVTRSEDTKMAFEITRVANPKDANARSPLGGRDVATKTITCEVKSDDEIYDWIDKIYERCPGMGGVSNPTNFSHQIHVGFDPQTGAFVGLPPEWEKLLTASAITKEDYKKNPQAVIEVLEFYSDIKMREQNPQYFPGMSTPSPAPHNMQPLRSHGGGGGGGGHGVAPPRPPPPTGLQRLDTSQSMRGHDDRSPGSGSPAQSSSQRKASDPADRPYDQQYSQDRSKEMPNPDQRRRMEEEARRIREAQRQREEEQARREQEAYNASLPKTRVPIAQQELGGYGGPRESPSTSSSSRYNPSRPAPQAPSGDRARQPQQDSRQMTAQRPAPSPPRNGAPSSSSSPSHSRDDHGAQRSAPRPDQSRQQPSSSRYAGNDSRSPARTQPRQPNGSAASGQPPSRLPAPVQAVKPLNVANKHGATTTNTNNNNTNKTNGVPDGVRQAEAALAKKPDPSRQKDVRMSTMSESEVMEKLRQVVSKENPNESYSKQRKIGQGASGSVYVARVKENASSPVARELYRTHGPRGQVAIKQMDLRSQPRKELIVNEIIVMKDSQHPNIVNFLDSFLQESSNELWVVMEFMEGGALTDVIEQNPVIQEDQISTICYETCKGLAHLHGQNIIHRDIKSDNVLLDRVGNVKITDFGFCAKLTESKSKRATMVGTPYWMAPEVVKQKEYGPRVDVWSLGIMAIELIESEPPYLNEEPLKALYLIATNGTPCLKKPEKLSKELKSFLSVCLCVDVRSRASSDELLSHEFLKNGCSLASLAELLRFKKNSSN
Kind of experiment: Kinase-Glo ATP consumption assay of immunoprecipitated 3xHA-TrCla4 with recombinant TrRac. The format is biochemical. Background: Kinase-Glo measures the ATP left after a reaction by luminescence.

Experiment [2] deals with T2, TrCla4 (Trichophyton rubrum, UniProt F2SMN8).
T2 construct: gene TERG_04196; His-, Tf- and Flag-tagged TrCla4 (E. coli BL21 lysate, Ni NTA pull-down); also immunoprecipitated 3xHA-TrCla4
As to the kind of experiment: pull-down of purified GTPγS-TrRac by Tf-TrCla4 with IPA-3; also Kinase-Glo assay of immunoprecipitated 3xHA-TrCla4. The format is biochemical.

Each structure is given as a SMILES string.

As to `CCn1c(=O)c(-c2ccc(Cl)cc2Cl)cc2cnc(Nc3ccc(N4CCNCC4)c(F)c3)nc21` [FRAX486], the “Kinase-Glo ATP consumption assay of immunoprecipitated 3xHA-TrCla4 with recombin” value at TrCla4 [1] was “Both FRAX486 and IPA-3 inhibited the TrRac-dependent ATPase activity of 3xHA-TrCla4 (Fig. 5D)”. What is called IC50 is the point on the concentration scale where inhibition reaches its midpoint. A low value points to greater potency. As for `Oc1ccc2ccccc2c1SSc1c(O)ccc2ccccc12` [IPA-3], on TrCla4 [2], half-maximal inhibition (IC50) was put at 2300 nM.
